From US10280169B2, “Biaryl bruton's tyrosine kinase inhibitors” (BIOGEN MA INC., priority 2013, dated 2019)

Key:
[1] = target: T1, BTK (Homo sapiens, UniProt Q06187); assay: In vitro BTK kinase assay: BTK-POLYGAT-LS assay; assay type: biochemical; conditions: 10 uM ATP, read-out: IC50 (10 uMATP)
T1 construct: purchased Upstate 14-552

[2] = target: T2, pBTK (Homo sapiens, UniProt Q06187); assay: In vitro PD assay in whole blood (pBTK assay); assay type: cell-based; conditions: 30 min at 37° C.
T2 construct: Heparinized venous blood was purchased from Bioreclamation, Inc. or SeraCare Life Sciences; tissue Bioreclamation, Inc. or SeraCare Life Sciences; host or cells: heparinized venous whole blood
Method: Heparinized venous blood was purchased from Bioreclamation, Inc. or SeraCare Life Sciences and shipped overnight. Whole blood was aliquoted into 96-well plate and “spiked” with serial dilutions of test compound in DMSO or with DMSO without drug. The final concentration of DMSO in all wells was 0.1%. The plate was incubated at 37° C. for 30 min. Lysis buffer containing protease and phosphatase inhibitors was added to the drug-containing samples and one of the DMSO-only samples (+PPi, high control), while lysis buffer containing protease inhibitors was added to the other DMSO-only samples (−PPi, low control). All of the lysed whole blood samples were subjected to the total BTK capture and phosphotyrosine detection method described in Example 30. ECL values were graphed in Prism and a best-fit curve with restrictions on the maximum and minimum defined by the +PPi high and −PPi low controls was used to estimate the test compound concentration that results in 50% inhibition of ECL signal by interpolation.
In some instances where a compound tested has activity “D”, other structurally similar compounds beyond the measurable limits of the assay are not included in Table 2.

T2 sequence (Q06187 whole entry): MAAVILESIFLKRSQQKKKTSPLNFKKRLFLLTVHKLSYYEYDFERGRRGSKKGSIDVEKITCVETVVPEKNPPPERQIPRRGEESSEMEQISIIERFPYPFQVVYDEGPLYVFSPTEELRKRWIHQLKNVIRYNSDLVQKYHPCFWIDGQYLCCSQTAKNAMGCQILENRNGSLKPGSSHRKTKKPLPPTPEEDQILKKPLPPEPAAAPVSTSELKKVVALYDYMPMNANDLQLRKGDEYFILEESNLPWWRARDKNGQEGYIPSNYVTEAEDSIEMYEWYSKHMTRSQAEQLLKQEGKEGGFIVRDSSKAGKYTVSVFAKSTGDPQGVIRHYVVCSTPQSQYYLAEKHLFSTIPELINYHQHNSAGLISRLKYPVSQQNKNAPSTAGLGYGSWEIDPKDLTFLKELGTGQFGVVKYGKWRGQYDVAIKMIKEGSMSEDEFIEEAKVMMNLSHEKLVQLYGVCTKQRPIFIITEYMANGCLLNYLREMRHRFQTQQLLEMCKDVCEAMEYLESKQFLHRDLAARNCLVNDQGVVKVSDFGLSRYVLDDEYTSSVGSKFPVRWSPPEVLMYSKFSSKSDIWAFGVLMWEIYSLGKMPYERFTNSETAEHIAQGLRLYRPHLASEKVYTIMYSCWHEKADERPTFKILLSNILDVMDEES
T1 sequence (Q06187 whole entry): as above

Row | IC50 [1] | IC50 [2] | SMILES
1 | < 0.01 µM | < 0.5 µM | Cc1cc(-c2ncnc3cc(C4=CCN(C(=O)N(C)C)CC4)[nH]c23)ccc1CNC(=O)c1ncc(C(C)(C)C)s1 [Example I-18, 5-(tert-butyl)-N-(4-(6-(1-(dimethylcarbamoyl)-1,2,3,6-tetrahydropyridin-4-yl)-5H-pyrrolo[3,2-d]pyrimidin-4-yl)-2-methylbenzyl)thiazole-2-carboxamide]
2 | < 0.01 µM | < 0.5 µM | Cc1cc(-c2ncnc3[nH]c(C4=CCN(C(=O)N(C)C)CC4)cc23)ccc1CNC(=O)c1cnc(C(C)(C)C)s1 [Example I-19, 2-(tert-butyl)-N-(4-(6-(1-(dimethylcarbamoyl)-1,2,3,6-tetrahydropyridin-4-yl)-7H-pyrrolo[2,3-d]pyrimidin-4-yl)-2-methylbenzyl)thiazole-5-carboxamide]
3 | < 0.01 µM | < 0.5 µM | Cc1cc(-c2ncnc3cc(C4=CCS(=O)(=O)CC4)[nH]c23)ccc1CNC(=O)c1cnc(C(C)(C)C)s1 [Example I-22, 2-(tert-butyl)-N-(4-(6-(1,1-dioxido-3,6-dihydro-2H-thiopyran-4-yl)-5H-pyrrolo[3,2-d]pyrimidin-4-yl)-2-methylbenzyl)thiazole-5-carboxamide]
4 | < 0.01 µM | 0.5 to 1.5 µM | Cc1cc(-c2ncnc3cc(C4CCN(C)CC4)[nH]c23)ccc1CNC(=O)c1cnc(C(C)(C)C)s1 [Example I-25, 2-(tert-butyl)-N-(2-methyl-4-(6-(1-methylpiperidin-4-yl)-5H-pyrrolo[3,2-d]pyrimidin-4-yl)benzyl)thiazole-5-carboxamide]
5 | < 0.01 µM | < 0.5 µM | Cc1cc(-c2ncnc3cc(-c4cnn(C)c4)[nH]c23)ccc1CNC(=O)c1ncc(C(C)(C)C)s1 [Example I-36]
6 | < 0.01 µM | < 0.5 µM | Cc1cc(-c2ncnc3cc(-c4cn(C)nc4C)[nH]c23)ccc1CNC(=O)c1cnc(C(C)(C)C)s1 [Example I-39, 2-(tert-butyl)-N-(4-(6-(1,3-dimethyl-1H-pyrazol-4-yl)-5H-pyrrolo[3,2-d]pyrimidin-4-yl)-2-methylbenzyl)thiazole-5-carboxamide]
7 | < 0.01 µM | < 0.5 µM | CCn1cc(-c2cc3ncnc(-c4ccc(CNC(=O)c5ncc(C(C)(C)C)s5)c(C)c4)c3[nH]2)cn1 [Example I-40, 5-(tert-butyl)-N-(4-(6-(1-ethyl-1H-pyrazol-4-yl)-5H-pyrrolo[3,2-d]pyrimidin-4-yl)-2-methylbenzyl)thiazole-2-carboxamide]
8 | < 0.01 µM | 0.5 to 1.5 µM | Cc1cc(-c2ncnc3cc(-c4cn[nH]c4)[nH]c23)ccc1CNC(=O)c1ncc(C(C)(C)C)s1 [Example I-41, N-(4-(6-(1H-pyrazol-4-yl)-5H-pyrrolo[3,2-d]pyrimidin-4-yl)-2-methylbenzyl)-5-(tert-butyl)thiazole-2-carboxamide]

The next lines start with the molecule.

Row | SMILES | IC50 [1] | IC50 [2]
9 | CC(C)(C)c1csc(C(=O)NC2CCCc3cc(-c4ncnc5[nH]ncc45)ccc32)n1 (stereo in doubt) [Example I-100, (R)—N-(6-(1H-pyrazolo[3,4-d]pyrimidin-4-yl)-1,2,3,4-tetrahydronaphthalen-1-yl)-4-(tert-butyl)thiazole-2-carboxamide] | < 0.01 µM | 1.5 to 10 µM
10 | Cc1cc(-c2ncnc3[nH]ccc23)ccc1CNC(=O)c1ccc(C(C)(C)C)cn1 [Example I-1, 5-(tert-butyl)-N-(2-methyl-4-(7H-pyrrolo[2,3-d]pyrimidin-4-yl)benzyl)picolinamide] | < 0.01 µM | 1.5 to 10 µM
11 | Cc1cc(-c2ncnc3[nH]ccc23)ccc1CNC(=O)c1ccc(C(C)(C)C)cc1 [Example I-2, 4-(tert-butyl)-N-(2-methyl-4-(7H-pyrrolo[2,3-d]pyrimidin-4-yl)benzyl)benzamide] | < 0.01 µM | 1.5 to 10 µM
12 | O=C(NC1CCCc2cc(-c3ncnc4[nH]ccc34)ccc21)c1cc2c(s1)CCCC2 (stereo not drawn) [Example I-16, N-(6-(7H-pyrrolo[2,3-d]pyrimidin-4-yl)-1,2,3,4-tetrahydronaphthalen-1-yl)-4,5,6,7-tetrahydrobenzo[b]thiophene-2-carboxamide] | 0.01 to 0.099 µM | 1.5 to 10 µM
13 | Cc1cc(-c2ncnc3[nH]c(-c4ccc(C(=O)N5CCOCC5)cc4)cc23)ccc1CNC(=O)c1cnc(C(C)(C)C)s1 [Example I-20] | < 0.01 µM | < 0.5 µM
14 | Cc1cc(-c2ncnc3[nH]c(C4=CCS(=O)(=O)CC4)cc23)ccc1CNC(=O)c1cnc(C(C)(C)C)s1 [Example I-21, 2-(tert-butyl)-N-(4-(6-(1,1-dioxido-3,6-dihydro-2H-thiopyran-4-yl)-7H-pyrrolo[2,3-d]pyrimidin-4-yl)-2-methylbenzyl)thiazole-5-carboxamide] | < 0.01 µM | < 0.5 µM
15 | Cc1cc(-c2ncnc3[nH]c(-c4cnn(C)c4)cc23)ccc1CNC(=O)c1cnc(C(C)(C)C)s1 [Example I-26, 2-(tert-butyl)-N-(2-methyl-4-(6-(1-methyl-1H-pyrazol-4-yl)-7H-pyrrolo[2,3-d]pyrimidin-4-yl)benzyl)thiazole-5-carboxamide] | < 0.01 µM | < 0.5 µM
16 | CC(C)(C)c1ncc(C(=O)NC(CO)c2ccc(-c3ncnc4[nH]c(C5=CCS(=O)(=O)CC5)cc34)cc2)s1 (stereo not drawn) [Example I-30, 2-(tert-butyl)-N-(1-(4-(6-(1,1-dioxido-3,6-dihydro-2H-thiopyran-4-yl)-7H-pyrrolo[2,3-d]pyrimidin-4-yl)phenyl)-2-hydroxyethyl)thiazole-5-carboxamide] | < 0.01 µM | 1.5 to 10 µM
17 | Cc1cc(-c2ncnc3[nH]c(-c4cnn(C)c4)cc23)ccc1C(CO)NC(=O)c1cnc(C(C)(C)C)s1 (stereo not drawn) [Example I-31, 2-(tert-butyl)-N-(2-hydroxy-1-(2-methyl-4-(6-(1-methyl-1H-pyrazol-4-yl)-7H-pyrrolo[2,3-d]pyrimidin-4-yl)phenyl)ethyl)thiazole-5-carboxamide] | < 0.01 µM | 0.5 to 1.5 µM
18 | Cc1cc(-c2ncnc3[nH]c(-c4cnn(C)c4)cc23)ccc1C(CO)NC(=O)c1cc2c(s1)CCOC2 (stereo not drawn) [Example I-32, N-(2-hydroxy-1-(2-methyl-4-(6-(1-methyl-1H-pyrazol-4-yl)-7H-pyrrolo[2,3-d]pyrimidin-4-yl)phenyl)ethyl)-6,7-dihydro-4H-thieno[3,2-c]pyran-2-carboxamide] | < 0.01 µM | < 0.5 µM
19 | Cn1cc(-c2cc3c(-c4ccc5c(c4)CCCC5NC(=O)c4cnc(C(C)(C)C)s4)ncnc3[nH]2)cn1 (stereo not drawn) [Example I-34, 2-(tert-butyl)-N-(6-(6-(1-methyl-1H-pyrazol-4-yl)-7H-pyrrolo[2,3-d]pyrimidin-4-yl)-1,2,3,4-tetrahydronaphthalen-1-yl)thiazole-5-carboxamide] | < 0.01 µM | < 0.5 µM
20 | Cn1cc(-c2cc3c(-c4ccc5c(c4)CCCC5NC(=O)c4cc5c(s4)CCOC5)ncnc3[nH]2)cn1 (stereo not drawn) [Example I-35, N-(6-(6-(1-methyl-1H-pyrazol-4-yl)-7H-pyrrolo[2,3-d]pyrimidin-4-yl)-1,2,3,4-tetrahydronaphthalen-1-yl)-6,7-dihydro-4H-thieno[3,2-c]pyran-2-carboxamide] | < 0.01 µM | 0.5 to 1.5 µM
21 | Cc1cc(-c2ncnc3cc(-c4cnn(C)c4)[nH]c23)ccc1CNC(=O)c1cc2c(s1)CCOC2 [Example I-42, N-(2-methyl-4-(6-(1-methyl-1H-pyrazol-4-yl)-5H-pyrrolo[3,2-d]pyrimidin-4-yl)benzyl)-6,7-dihydro-4H-thieno[3,2-c]pyran-2-carboxamide] | < 0.01 µM | < 0.5 µM
22 | Cc1cc(-c2ncnc3cc(-c4cnn(C)c4)[nH]c23)ccc1CNC(=O)N1CC(OC(C)C)C1 [Example I-43, 3-isopropoxy-N-(2-methyl-4-(6-(1-methyl-1H-pyrazol-4-yl)-5H-pyrrolo[3,2-d]pyrimidin-4-yl)benzyl)azetidine-1-carboxamide] | < 0.01 µM | 0.5 to 1.5 µM
23 | Cn1cc(-c2cc3c(-c4ccc5c(c4)CCCCC5NC(=O)c4cnc(C(C)(C)C)s4)ncnc3[nH]2)cn1 (stereo not drawn) [Example I-161, 2-(tert-butyl)-N-(2-(6-(1-methyl-1H-pyrazol-4-yl)-7H-pyrrolo[2,3-d]pyrimidin-4-yl)-6,7,8,9-tetrahydro-5H-benzo[7]annulen-5-yl)thiazole-5-carboxamide] | < 0.01 µM | 
24 | Cn1cc(-c2cc3c(-c4ccc5c(c4)CCCCC5NC(=O)N4CCC(C(C)(C)C)C4)ncnc3[nH]2)cn1 (stereo not drawn) [Example I-162, 3-(tert-butyl)-N-(2-(6-(1-methyl-1H-pyrazol-4-yl)-7H-pyrrolo[2,3-d]pyrimidin-4-yl)-6,7,8,9-tetrahydro-5H-benzo[7]annulen-5-yl)pyrrolidine-1-carboxamide] | < 0.01 µM | 
25 | CC(C)OC1CN(C(=O)NC2CCCCc3cc(-c4ncnc5[nH]c(-c6cnn(C)c6)cc45)ccc32)C1 (stereo not drawn) [Example I-163, 3-isopropoxy-N-(2-(6-(1-methyl-1H-pyrazol-4-yl)-7H-pyrrolo[2,3-d]pyrimidin-4-yl)-6,7,8,9-tetrahydro-5H-benzo[7]annulen-5-yl)azetidine-1-carboxamide] | < 0.01 µM | 
26 | Cn1cc(-c2cc3c(-c4ccc5c(c4)CCCCC5NC(=O)N4CC(OC(C)(C)C)C4)ncnc3[nH]2)cn1 (stereo not drawn) [Example I-164, 3-(tert-butoxy)-N-(2-(6-(1-methyl-1H-pyrazol-4-yl)-7H-pyrrolo[2,3-d]pyrimidin-4-yl)-6,7,8,9-tetrahydro-5H-benzo[7]annulen-5-yl)azetidine-1-carboxamide] | < 0.01 µM | 
